Measured values published in patent publication US9145411B2, “Substituted amino-pyrimidine derivatives” (Asana Biosciences, LLC, priority 2012, dated 2015).

Tests used:
PC3 cells = test: XTT assay for cell viability, PC3 cells; format: cell-based; details: Homo sapiens, PC-3; PC3 cell proliferation, 96 hours
Description: Using a commercial kit from Sigma Aldrich (Catalog #X34251) and following its protocol, PC3 cells in the log phase of growth were employed and seeded at an optimal density of 1000 cell/well on to 96 well plates and incubated for 24 hours followed by the addition of compounds of formula (I) in serial dilutions. Compound dilutions were made in DMSO. The cells were incubated with the compounds of formula (I) for 96 hours and XTT tetrazolium dye (Sigma, USA) was subsequently added and incubated at 37° C. After the color formation, absorbance was measured at 465 nm in a Spectramax® Gemini spectrophotometer. EC50 values were calculated using a sigmoidal dose response curve fit in GraphPad Prism® v5 software. The tested compounds of formula (I) which caused inhibition of PC3 cell proliferation as determined by this assay protocol are shown in Table 2.

mTOR kinase = target: T1, mTOR kinase (Homo sapiens, UniProt P42345); test: mTOR kinase TR-FRET assay; format: biochemical; details: 20 μM ATP
T1 construct: purchased Millipore, USA
Description: Compound inhibition for mTOR kinase was determined in a homogeneous TR-FRET assay using the Lance® ULight-p70 S6K (Thr 389) peptide (obtained from Perkin-Elmer). The ULight™-labeled synthetic peptide contains the amino acid residues surrounding Thr389 of human p70 S6K. The ULight-p70 S6K peptide is phosphorylated at Thr389 by mTOR. Phosphorylation motif: LGFTYVAP as substrate.
The compound dilution was carried out in 100% DMSO followed by a buffer dilution. The reaction buffer was HEPES (50 mM pH 7.5), EGTA (1 mM), MnCl2 (3 mM). Test compounds at various concentrations were pre-incubated with mTOR (Millipore, USA; 5 ng) for 60 min, and then the Lance® ULight-p70 S6K (Thr 389) peptide (50 nM) was added along with ATP (20 μM). After incubating the reaction mixture for 60 minutes at room temperature, the kinase reaction was terminated by the addition of EDTA (10 mM) followed by the addition of detection mix, i.e., 1 nM Eu-labeled anti-phospho-substrate antibody (Perkin Elmer, USA). The fluorescence emission at […] was measured upon excitation at 340 nm. IC50 values were subsequently determined using a sigmoidal dose-response curve (variable slope) in GraphPad Prism® 5 software.
Compounds of formula (I) caused inhibition of mTOR kinase activity as determined by this assay.

PI3Kα (wild-type) = target: T2, PI3Kα (wild-type) (Homo sapiens, UniProt P42336); test: PI3 Kinase TR-FRET assay, PI3Kα (wild-type); format: biochemical; details: wild-type P110/P85α, 10 μM ATP
T2 construct: made in house; host or cells: SF9 insect cells
Description: The ability of compounds of the invention to inhibit PI3K activity was determined in a homogeneous TR-FRET assay using a PI3K assay kit (Millipore, USA; cat #33-016) according to manufacturer's instructions. PI3-Kinases (isoforms α, β, γ and δ) catalyze the phosphorylation of phosphatidylinositol, PIP2 to PIP3 in the presence of ATP and Mg^2+. The PIP3 product is detected by displacement of biotin-PIP3 from an energy transfer complex consisting of Europium labeled anti-GST monoclonal antibody, a GST-tagged PH domain, biotinylated PIP3 and Streptavidin-APC. Excitation of Europium in the complex results in an energy transfer to the APC and a fluorescence emission at 665 nm. The PIP3 product displaces biotin-PIP3 from the complex resulting in a loss of energy transfer and thus a decrease in signal.
To test for the ability of compounds to inhibit the activity of PI3Kα (wild-type), exemplary compounds of formula (I) were dissolved in DMSO and directly distributed into 384-well plates at a volume of 0.5 μL. 14.5 μL of P110/P85α/PIP2 mixture in buffer (obtained from the Millipore kit) containing MgCl2 (40 mM) and DTT (5 mM) was added to compound wells and incubated for 60 minutes at room temperature. P110/P85α was expressed in SF9 insect cells and purified nickel column extraction. Five ng of wild-type P110/P85α was used in the assay. The kinase reaction was started by the addition of ATP. The assay concentrations of both PIP2 and ATP were 10 μM. The reaction mixture was incubated for 30 minutes at room temperature and was terminated by the addition of stop mix and detection mix. Fluorescence was measured at 615 and 665 nm upon excitation at 340 nm in a Victor™ V5 fluorometer (Perkin Elmer, USA). The fluorescence emission ratio at 665 to 615 nm, proportional to the kinase activity, was plotted against the compound concentration to generate dose-response curves and IC50 values were determined using GraphPad Prism® 5 software.

T2 sequence (P42336 whole entry, species assumed): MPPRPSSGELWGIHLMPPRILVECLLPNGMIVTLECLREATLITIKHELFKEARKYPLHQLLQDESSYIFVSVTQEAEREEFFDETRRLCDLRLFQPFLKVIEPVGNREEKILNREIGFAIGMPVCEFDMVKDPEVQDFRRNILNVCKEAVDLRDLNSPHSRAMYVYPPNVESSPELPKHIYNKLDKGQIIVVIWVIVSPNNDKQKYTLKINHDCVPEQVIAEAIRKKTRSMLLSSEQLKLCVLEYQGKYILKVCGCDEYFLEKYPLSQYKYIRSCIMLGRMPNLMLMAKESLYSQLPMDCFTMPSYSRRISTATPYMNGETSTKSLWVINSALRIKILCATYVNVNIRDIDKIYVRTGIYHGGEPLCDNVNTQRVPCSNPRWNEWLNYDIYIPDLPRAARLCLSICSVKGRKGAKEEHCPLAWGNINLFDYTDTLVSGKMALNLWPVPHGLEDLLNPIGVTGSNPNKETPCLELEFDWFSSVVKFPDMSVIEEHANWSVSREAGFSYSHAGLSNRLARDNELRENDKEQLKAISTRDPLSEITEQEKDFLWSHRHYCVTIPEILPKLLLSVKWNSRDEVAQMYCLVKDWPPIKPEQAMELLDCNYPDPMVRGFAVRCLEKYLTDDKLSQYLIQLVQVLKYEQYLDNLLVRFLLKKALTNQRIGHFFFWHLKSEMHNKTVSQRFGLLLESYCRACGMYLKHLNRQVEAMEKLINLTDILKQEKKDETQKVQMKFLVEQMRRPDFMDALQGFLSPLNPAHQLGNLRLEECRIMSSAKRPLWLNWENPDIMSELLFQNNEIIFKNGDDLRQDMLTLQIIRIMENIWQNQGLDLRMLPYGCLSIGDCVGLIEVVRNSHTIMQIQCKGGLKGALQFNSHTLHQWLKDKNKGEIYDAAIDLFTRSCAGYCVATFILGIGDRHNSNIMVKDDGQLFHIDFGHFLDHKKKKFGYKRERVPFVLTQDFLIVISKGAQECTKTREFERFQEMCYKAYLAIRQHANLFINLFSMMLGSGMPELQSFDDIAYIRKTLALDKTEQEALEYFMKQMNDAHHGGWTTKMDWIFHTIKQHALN
T2 sequence (P27986 whole entry partner, species assumed): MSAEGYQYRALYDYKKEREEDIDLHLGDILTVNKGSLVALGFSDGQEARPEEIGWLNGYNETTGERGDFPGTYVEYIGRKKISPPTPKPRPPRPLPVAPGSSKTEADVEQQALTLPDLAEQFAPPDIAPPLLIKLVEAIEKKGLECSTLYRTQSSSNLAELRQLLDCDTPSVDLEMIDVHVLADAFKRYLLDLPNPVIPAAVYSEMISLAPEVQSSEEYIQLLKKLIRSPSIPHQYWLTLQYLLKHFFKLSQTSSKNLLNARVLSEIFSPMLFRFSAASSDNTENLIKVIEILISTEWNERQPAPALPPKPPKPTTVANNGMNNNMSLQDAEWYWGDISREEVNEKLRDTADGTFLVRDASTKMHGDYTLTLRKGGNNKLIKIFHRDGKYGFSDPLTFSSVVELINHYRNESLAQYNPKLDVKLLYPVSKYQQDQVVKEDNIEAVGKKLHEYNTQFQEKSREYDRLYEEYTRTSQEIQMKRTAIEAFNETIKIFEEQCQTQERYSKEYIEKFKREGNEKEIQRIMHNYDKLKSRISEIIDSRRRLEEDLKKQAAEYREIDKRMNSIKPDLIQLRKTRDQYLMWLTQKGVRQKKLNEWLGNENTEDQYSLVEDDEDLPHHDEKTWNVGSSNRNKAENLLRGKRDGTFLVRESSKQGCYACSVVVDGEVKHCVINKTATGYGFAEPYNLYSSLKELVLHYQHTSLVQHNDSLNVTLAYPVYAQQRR
T1 sequence (P42345 1362-2549 limits assumed): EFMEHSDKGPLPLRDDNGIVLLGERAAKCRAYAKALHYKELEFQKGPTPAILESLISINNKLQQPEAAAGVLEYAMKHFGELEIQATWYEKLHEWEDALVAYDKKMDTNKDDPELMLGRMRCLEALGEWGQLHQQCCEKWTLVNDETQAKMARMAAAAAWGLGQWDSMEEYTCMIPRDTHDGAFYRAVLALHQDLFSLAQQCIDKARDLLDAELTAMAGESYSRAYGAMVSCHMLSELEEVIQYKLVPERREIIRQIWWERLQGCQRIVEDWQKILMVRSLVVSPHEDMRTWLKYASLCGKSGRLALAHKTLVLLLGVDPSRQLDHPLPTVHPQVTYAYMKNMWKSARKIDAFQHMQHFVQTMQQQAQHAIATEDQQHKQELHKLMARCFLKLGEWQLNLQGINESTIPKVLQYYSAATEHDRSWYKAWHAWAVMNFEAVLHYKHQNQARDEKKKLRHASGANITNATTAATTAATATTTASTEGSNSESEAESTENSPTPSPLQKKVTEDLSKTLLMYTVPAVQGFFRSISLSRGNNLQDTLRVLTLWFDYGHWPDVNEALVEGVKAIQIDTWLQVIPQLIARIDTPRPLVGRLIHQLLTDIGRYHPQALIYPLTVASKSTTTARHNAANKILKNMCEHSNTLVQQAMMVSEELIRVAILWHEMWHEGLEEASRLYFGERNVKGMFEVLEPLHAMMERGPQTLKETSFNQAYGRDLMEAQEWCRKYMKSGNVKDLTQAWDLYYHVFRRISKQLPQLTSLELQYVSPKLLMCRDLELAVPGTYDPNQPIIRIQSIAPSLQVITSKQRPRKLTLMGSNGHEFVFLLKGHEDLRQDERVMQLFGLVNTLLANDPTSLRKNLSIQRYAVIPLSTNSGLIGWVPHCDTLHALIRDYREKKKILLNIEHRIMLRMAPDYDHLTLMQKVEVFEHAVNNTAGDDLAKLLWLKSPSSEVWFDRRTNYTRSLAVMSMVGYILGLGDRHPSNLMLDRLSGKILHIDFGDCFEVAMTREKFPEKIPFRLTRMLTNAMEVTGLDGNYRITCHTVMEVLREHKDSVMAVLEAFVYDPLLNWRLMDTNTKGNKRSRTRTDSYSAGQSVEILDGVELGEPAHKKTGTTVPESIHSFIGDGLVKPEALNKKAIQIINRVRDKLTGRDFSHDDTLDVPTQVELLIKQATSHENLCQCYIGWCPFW

Compound	IC50 (PC3 cells) [nM]	IC50 (mTOR kinase) [nM]	IC50 (PI3Kα (wild-type)) [nM]
CC(=O)Nc1cccc(-c2ccc3c(N4CCOCC4)nc(-c4cnc(N)nc4)nc3c2)c1 [Example 13, N-(3-(2-(2-amino-pyrimidin-5-yl)-4-morpholinoquinazolin-7-yl)phenyl)acetamide]	501 to 5000	50 to 200	201 to 10000
Nc1ncc(-c2nc(N3CCOCC3)c3ncc(-c4cccc(C(=O)N5CCC(O)CC5)c4)cc3n2)cn1 [Example 40, (3-(2-(2-aminopyrimidin-5-yl)-4-morpholino-pyrido[3,2-d]pyrimidin-7-yl)phenyl)(4-hydroxy-piperidin-1-yl)methanone]	100 to 500		
Cc1cc(C(=O)Nc2cccc(-c3cnc4c(N5CCOCC5)nc(-c5cnc(N)nc5)nc4c3)c2)[nH]n1 [Example 75, N-(3-(2-(2-amino-pyrimidin-5-yl)-4-morpholinopyrido[3,2-d]pyrimidin-7-yl)phenyl)-3-methyl-1H-pyrazole-5-carboxamide]		< 50	< 50
Cc1cc(C(=O)Nc2ccc(-c3cnc4c(N5CCOCC5)nc(-c5cnc(N)nc5)nc4c3)cc2)[nH]n1 [Example 80, N-(4-(2-(2-amino-pyrimidin-5-yl)-4-morpholinopyrido[3,2-d]pyrimidin-7-yl)phenyl)-3-methyl-1H-pyrazole-5-carboxamide]	> 1000		
Nc1ncc(-c2nc(N3CCOCC3)c3ccc(-c4cccc(NC(=O)N5CCOCC5)c4)cc3n2)cn1 [Example 88, N-(3-(2-(2-amino-pyrimidin-5-yl)-4-morpholinoquinazolin-7-yl)phenyl)morpholine-4-carboxamide]		50 to 200	50 to 200
CC(O)C(=O)N1CCN(Cc2ccc3c(N4CCOCC4)nc(-c4cnc(N)nc4)nc3c2)CC1 (stereo not shown) [Example 90, 1-(4-((2-(2-aminopyrimidin-5-yl)-4-morpholinoquinazolin-7-yl)methyl)piperazin-1-yl)-2-hydroxypropan-1-one]		201 to 10000	201 to 10000
CC(C)(O)C(=O)N1CCN(Cc2ccc3c(N4CCOCC4)nc(-c4cnc(N)nc4)nc3c2)CC1 [Example 91, 1-(4-((2-(2-amino-pyrimidin-5-yl)-4-morpholinoquinazolin-7-yl)methyl)piperazin-1-yl)-2-hydroxy-2-methyl-propan-1-one]		201 to 10000	201 to 10000
CC(=O)NC1CCN(Cc2ccc3c(N4CCOCC4)nc(-c4cnc(N)nc4)nc3c2)CC1 [Example 93, N-(1-((2-(2-amino-pyrimidin-5-yl)-4-morpholinoquinazolin-7-yl)methyl)piperidin-4-yl)-acetamide]		201 to 10000	201 to 10000
Nc1ncc(-c2nc(N3CCOCC3)c3ncc(CN4CCNCC4)cc3n2)cn1 [Example 94, 5-(4-morpholino-7-(piperazin-1-yl-methyl)pyrido[3,2-d]-pyrimidin-2-yl)pyrimidin-2-amine]		201 to 10000	50 to 200

Further lines, results first:

IC50 (PC3 cells) [nM]	IC50 (mTOR kinase) [nM]	IC50 (PI3Kα (wild-type)) [nM]	Compound
< 100	< 50	< 50	Nc1ncc(-c2nc(N3CCOCC3)c3ncc(-c4ccc(C(=O)NC5CC5)cc4)cc3n2)cn1 [Example 4, 4-(2-(2-Aminopyrimidin-5-yl)-4-morpholinopyrido[3,2-d]pyrimidin-7-yl)-N-cyclopropylbenzamide]
501 to 5000	< 50	< 50	Nc1ncc(-c2nc(N3CCOCC3)c3ncc(-c4cccc(NC(=O)N5CCOCC5)c4)cc3n2)cn1 [Example 10, N-(3-(2-(2-aminopyrimidin-5-yl)-4-morpholinopyrido[3,2-d]pyrimidin-7-yl)-phenyl)morpholine-4-carboxamide]
501 to 5000	201 to 10000	201 to 10000	Cn1cc(-c2ccc3c(N4CCOCC4)nc(-c4cnc(N)nc4)nc3c2)cn1 [Example 14, 5-(7-(1-methyl-1H-pyrazol-4-yl)-4-morpholinoquinazolin-2-yl)pyrimidin-2-amine]
501 to 5000	< 50	201 to 10000	CNC(=O)Nc1cccc(-c2ccc3c(N4CCOCC4)nc(-c4cnc(N)nc4)nc3c2)c1 [Example 15, 1-(3-(2-(2-amino-pyrimidin-5-yl)-4-morpholinoquinazolin-7-yl)phenyl)-3-methylurea]
501 to 5000	< 50	50 to 200	CS(=O)(=O)Nc1cccc(-c2ccc3c(N4CCOCC4)nc(-c4cnc(N)nc4)nc3c2)c1 [Example 16, N-(3-(2-(2-amino-pyrimidin-5-yl)-4-morpholinoquinazolin-7-yl)phenyl)methane-sulfonamide]
100 to 500	< 50	< 50	Nc1ncc(-c2nc(N3CCOCC3)c3ncc(-c4ccco4)cc3n2)cn1 [Example 25, 5-(7-(furan-2-yl)-4-morpholinopyrido[3,2-d]-pyrimidin-2-yl)pyrimidin-2-amine]
501 to 5000	50 to 200	< 50	Cc1ccc(-c2cnc3c(N4CCOCC4)nc(-c4cnc(N)nc4)nc3c2)o1 [Example 26, 5-(7-(5-methylfuran-2-yl)-4-morpholino-pyrido[3,2-d]pyrimidin-2-yl)pyrimidin-2-amine]
501 to 5000			Nc1ncc(-c2nc(N3CCOCC3)c3ncc(-c4ccc(C(=O)N5CCC(O)CC5)cc4)cc3n2)cn1 [Example 39, (4-(2-(2-aminopyrimidin-5-yl)-4-morpholino-pyrido[3,2-d]pyrimidin-7-yl)phenyl)(4-hydroxy-piperidin-1-yl)methanone]
	201 to 10000	< 50	CN1CCN(C(=O)Nc2cccc(-c3ccc4c(N5CCOCC5)nc(-c5cnc(N)nc5)nc4c3)c2)CC1 [Example 87, N-(3-(2-(2-amino-pyrimidin-5-yl)-4-morpholinoquinazolin-7-yl)phenyl)-4-methyl-piperazine-1-carboxamide]
	201 to 10000	201 to 10000	CC(=O)N1CCN(Cc2ccc3c(N4CCOCC4)nc(-c4cnc(N)nc4)nc3c2)CC1 [Example 92, 1-(4-((2-(2-amino-pyrimidin-5-yl)-4-morpholinoquinazolin-7-yl)methyl)piperazin-1-yl)ethanone]
	< 50	< 50	CS(=O)(=O)Nc1cncc(-c2cnc3c(N4CCOCC4)nc(-c4cnc(N)nc4)nc3c2)c1 [Example 96, N-(5-(2-(2-amino-pyrimidin-5-yl)-4-morpholinopyrido[3,2-d]-pyrimidin-7-yl)pyridin-3-yl)methanesulfonamide]
100 to 500	50 to 200		CN1CCN(C(=O)c2cccc(-c3cnc4c(N5CCOCC5)nc(-c5cnc(N)nc5)nc4c3)c2)CC1 [Example 110, (3-(2-(2-aminopyrimidin-5-yl)-4-morpholinopyrido[3,2-d]-pyrimidin-7-yl)phenyl)(4-methylpiperazin-1-yl)-methanone]
	< 50	< 50	CN(C)CC(=O)N1CCN(c2cccc(-c3cnc4c(N5CCOCC5)nc(-c5cnc(N)nc5)nc4c3)c2)CC1 [Example 112, 1-(4-(3-(2-(2-amino-pyrimidin-5-yl)-4-morpholinopyrido[3,2-d]pyrimidin-7-yl)-phenyl)piperazin-1-yl)-2-(dimethylamino)ethanone]
